# ± gives the expanded uncertainty stated by the source.
# Assay: molar heat capacity at constant pressure
# Conditions: 101.33 kPa, Liquid, Small sample (50 mg) DSC
smiles,measurement,setting,value
"OCCCCCCCCO [1,8-octanediol]",molar heat capacity at constant pressure,333.65 K,371.35 ± 5.8 J/K/mol
same,molar heat capacity at constant pressure,335.15 K,373.24 ± 5.8 J/K/mol
same,molar heat capacity at constant pressure,336.65 K,375.13 ± 5.8 J/K/mol
same,molar heat capacity at constant pressure,338.15 K,377.03 ± 5.8 J/K/mol
same,molar heat capacity at constant pressure,339.65 K,378.93 ± 5.9 J/K/mol
same,molar heat capacity at constant pressure,341.15 K,380.83 ± 5.9 J/K/mol
same,molar heat capacity at constant pressure,342.65 K,382.74 ± 5.9 J/K/mol
same,molar heat capacity at constant pressure,344.15 K,384.65 ± 6 J/K/mol
same,molar heat capacity at constant pressure,345.65 K,386.56 ± 6 J/K/mol
same,molar heat capacity at constant pressure,347.15 K,388.48 ± 6 J/K/mol
same,molar heat capacity at constant pressure,348.65 K,390.4 ± 6 J/K/mol
same,molar heat capacity at constant pressure,350.15 K,392.32 ± 6.1 J/K/mol
same,molar heat capacity at constant pressure,351.65 K,394.24 ± 6.1 J/K/mol
same,molar heat capacity at constant pressure,353.15 K,396.17 ± 6.1 J/K/mol
"OCCCCCCO [1,6-hexanediol]",molar heat capacity at constant pressure,318.65 K,282.66 ± 4.4 J/K/mol
same,molar heat capacity at constant pressure,320.15 K,284.25 ± 4.4 J/K/mol
same,molar heat capacity at constant pressure,321.65 K,285.84 ± 4.4 J/K/mol
same,molar heat capacity at constant pressure,323.15 K,287.42 ± 4.5 J/K/mol
same,molar heat capacity at constant pressure,324.65 K,288.99 ± 4.5 J/K/mol
same,molar heat capacity at constant pressure,326.15 K,290.55 ± 4.5 J/K/mol
same,molar heat capacity at constant pressure,327.65 K,292.12 ± 4.5 J/K/mol
same,molar heat capacity at constant pressure,329.15 K,293.67 ± 4.5 J/K/mol
same,molar heat capacity at constant pressure,330.65 K,295.22 ± 4.6 J/K/mol
same,molar heat capacity at constant pressure,332.15 K,296.76 ± 4.6 J/K/mol
same,molar heat capacity at constant pressure,333.65 K,298.3 ± 4.6 J/K/mol
same,molar heat capacity at constant pressure,335.15 K,299.83 ± 4.6 J/K/mol
same,molar heat capacity at constant pressure,336.65 K,301.36 ± 4.7 J/K/mol
same,molar heat capacity at constant pressure,338.15 K,302.88 ± 4.7 J/K/mol
same,molar heat capacity at constant pressure,339.65 K,304.4 ± 4.7 J/K/mol
same,molar heat capacity at constant pressure,341.15 K,305.91 ± 4.7 J/K/mol
same,molar heat capacity at constant pressure,342.65 K,307.41 ± 4.8 J/K/mol
same,molar heat capacity at constant pressure,344.15 K,308.91 ± 4.8 J/K/mol
same,molar heat capacity at constant pressure,345.65 K,310.4 ± 4.8 J/K/mol
same,molar heat capacity at constant pressure,347.15 K,311.88 ± 4.8 J/K/mol
same,molar heat capacity at constant pressure,348.65 K,313.36 ± 4.8 J/K/mol
same,molar heat capacity at constant pressure,350.15 K,314.84 ± 4.9 J/K/mol
same,molar heat capacity at constant pressure,351.65 K,316.31 ± 4.9 J/K/mol
same,molar heat capacity at constant pressure,353.15 K,317.77 ± 4.9 J/K/mol
"OCCCO [propan-1,3-diol]",molar heat capacity at constant pressure,293.15 K,173.4 ± 2.7 J/K/mol
same,molar heat capacity at constant pressure,294.65 K,174.11 ± 2.7 J/K/mol
same,molar heat capacity at constant pressure,296.15 K,174.83 ± 2.7 J/K/mol
same,molar heat capacity at constant pressure,297.65 K,175.54 ± 2.7 J/K/mol
same,molar heat capacity at constant pressure,298.15 K,175.78 ± 2.7 J/K/mol
same,molar heat capacity at constant pressure,299.15 K,176.26 ± 2.7 J/K/mol
same,molar heat capacity at constant pressure,300.65 K,176.98 ± 2.7 J/K/mol
same,molar heat capacity at constant pressure,302.15 K,177.7 ± 2.8 J/K/mol
same,molar heat capacity at constant pressure,303.65 K,178.42 ± 2.8 J/K/mol
same,molar heat capacity at constant pressure,305.15 K,179.15 ± 2.8 J/K/mol
same,molar heat capacity at constant pressure,306.65 K,179.87 ± 2.8 J/K/mol
same,molar heat capacity at constant pressure,308.15 K,180.59 ± 2.8 J/K/mol
same,molar heat capacity at constant pressure,309.65 K,181.32 ± 2.8 J/K/mol
same,molar heat capacity at constant pressure,311.15 K,182.05 ± 2.8 J/K/mol
same,molar heat capacity at constant pressure,312.65 K,182.78 ± 2.8 J/K/mol
same,molar heat capacity at constant pressure,314.15 K,183.51 ± 2.8 J/K/mol
same,molar heat capacity at constant pressure,315.65 K,184.24 ± 2.9 J/K/mol
same,molar heat capacity at constant pressure,317.15 K,184.97 ± 2.9 J/K/mol
same,molar heat capacity at constant pressure,318.65 K,185.7 ± 2.9 J/K/mol
same,molar heat capacity at constant pressure,320.15 K,186.44 ± 2.9 J/K/mol
same,molar heat capacity at constant pressure,321.65 K,187.17 ± 2.9 J/K/mol
same,molar heat capacity at constant pressure,323.15 K,187.91 ± 2.9 J/K/mol
same,molar heat capacity at constant pressure,324.65 K,188.65 ± 2.9 J/K/mol
same,molar heat capacity at constant pressure,326.15 K,189.38 ± 2.9 J/K/mol
same,molar heat capacity at constant pressure,327.65 K,190.12 ± 3 J/K/mol
same,molar heat capacity at constant pressure,329.15 K,190.87 ± 3 J/K/mol
same,molar heat capacity at constant pressure,330.65 K,191.61 ± 3 J/K/mol
same,molar heat capacity at constant pressure,332.15 K,192.35 ± 3 J/K/mol
same,molar heat capacity at constant pressure,333.65 K,193.1 ± 3 J/K/mol
same,molar heat capacity at constant pressure,335.15 K,193.84 ± 3 J/K/mol
same,molar heat capacity at constant pressure,336.65 K,194.59 ± 3 J/K/mol
same,molar heat capacity at constant pressure,338.15 K,195.34 ± 3 J/K/mol
same,molar heat capacity at constant pressure,339.65 K,196.09 ± 3 J/K/mol
same,molar heat capacity at constant pressure,341.15 K,196.84 ± 3 J/K/mol
same,molar heat capacity at constant pressure,342.65 K,197.59 ± 3.1 J/K/mol
same,molar heat capacity at constant pressure,344.15 K,198.34 ± 3.1 J/K/mol
same,molar heat capacity at constant pressure,345.65 K,199.1 ± 3.1 J/K/mol
same,molar heat capacity at constant pressure,347.15 K,199.85 ± 3.1 J/K/mol
same,molar heat capacity at constant pressure,348.65 K,200.61 ± 3.1 J/K/mol
same,molar heat capacity at constant pressure,350.15 K,201.37 ± 3.1 J/K/mol
same,molar heat capacity at constant pressure,351.65 K,202.13 ± 3.1 J/K/mol
same,molar heat capacity at constant pressure,353.15 K,202.89 ± 3.1 J/K/mol
"OCCCCCCCO [1,7-heptanediol]",molar heat capacity at constant pressure,293.15 K,292.06 ± 4.5 J/K/mol
same,molar heat capacity at constant pressure,294.65 K,293.4 ± 4.5 J/K/mol
same,molar heat capacity at constant pressure,296.15 K,294.75 ± 4.6 J/K/mol
same,molar heat capacity at constant pressure,297.65 K,296.11 ± 4.6 J/K/mol
same,molar heat capacity at constant pressure,299.15 K,297.48 ± 4.6 J/K/mol
same,molar heat capacity at constant pressure,300.65 K,298.87 ± 4.6 J/K/mol
same,molar heat capacity at constant pressure,302.15 K,300.26 ± 4.7 J/K/mol
same,molar heat capacity at constant pressure,303.65 K,301.67 ± 4.7 J/K/mol
same,molar heat capacity at constant pressure,305.15 K,303.09 ± 4.7 J/K/mol
same,molar heat capacity at constant pressure,306.65 K,304.51 ± 4.7 J/K/mol
same,molar heat capacity at constant pressure,308.15 K,305.95 ± 4.7 J/K/mol
same,molar heat capacity at constant pressure,309.65 K,307.41 ± 4.8 J/K/mol
same,molar heat capacity at constant pressure,311.15 K,308.87 ± 4.8 J/K/mol
same,molar heat capacity at constant pressure,312.65 K,310.34 ± 4.8 J/K/mol
same,molar heat capacity at constant pressure,314.15 K,311.83 ± 4.8 J/K/mol
same,molar heat capacity at constant pressure,315.65 K,313.33 ± 4.8 J/K/mol
same,molar heat capacity at constant pressure,317.15 K,314.83 ± 4.9 J/K/mol
same,molar heat capacity at constant pressure,318.65 K,316.35 ± 4.9 J/K/mol
same,molar heat capacity at constant pressure,320.15 K,317.88 ± 4.9 J/K/mol
same,molar heat capacity at constant pressure,321.65 K,319.43 ± 5 J/K/mol
same,molar heat capacity at constant pressure,323.15 K,320.98 ± 5 J/K/mol
same,molar heat capacity at constant pressure,324.65 K,322.54 ± 5 J/K/mol
same,molar heat capacity at constant pressure,326.15 K,324.12 ± 5 J/K/mol
same,molar heat capacity at constant pressure,327.65 K,325.71 ± 5 J/K/mol
same,molar heat capacity at constant pressure,329.15 K,327.31 ± 5.1 J/K/mol
same,molar heat capacity at constant pressure,330.65 K,328 ± 5 J/K/mol
same,molar heat capacity at constant pressure,332.15 K,330.54 ± 5.1 J/K/mol
same,molar heat capacity at constant pressure,333.65 K,332.17 ± 5.2 J/K/mol
same,molar heat capacity at constant pressure,335.15 K,333.81 ± 5.2 J/K/mol
same,molar heat capacity at constant pressure,336.65 K,335.47 ± 5.2 J/K/mol
same,molar heat capacity at constant pressure,338.15 K,337.13 ± 5.2 J/K/mol
same,molar heat capacity at constant pressure,339.65 K,338.81 ± 5.2 J/K/mol
same,molar heat capacity at constant pressure,341.15 K,340.5 ± 5.3 J/K/mol
same,molar heat capacity at constant pressure,342.65 K,342.2 ± 5.3 J/K/mol
same,molar heat capacity at constant pressure,344.15 K,343.91 ± 5.3 J/K/mol
same,molar heat capacity at constant pressure,345.65 K,345.63 ± 5.3 J/K/mol
same,molar heat capacity at constant pressure,347.15 K,347.37 ± 5.4 J/K/mol
same,molar heat capacity at constant pressure,348.65 K,349.11 ± 5.4 J/K/mol
same,molar heat capacity at constant pressure,350.15 K,350.87 ± 5.4 J/K/mol
same,molar heat capacity at constant pressure,351.65 K,352.64 ± 5.5 J/K/mol
same,molar heat capacity at constant pressure,353.15 K,354.42 ± 5.5 J/K/mol

# Source: the NIST ThermoML archive (doi:10.1021/je800356x)
